Test results from patent publication US20060020014A1, “Method for treating nervous system disorders and conditions” (Wyeth, priority 2004, published 2006).
Where “and” joins values, the source holds several entries; their conditions need not be identical. Equal entries are not always repeated.

Experiments:
[1] = molecular target: human norepinephrine transporter (hNET) (Homo sapiens, UniProt P23975); assay: cell-based; details: hNET function uptake (EC50 in nm), MDCK-Net6 cells, [3H]NE uptake
Protocol: Test compounds were prepared in DMSO (10 mM) and diluted in assay buffer according to test range (1 to 10,000 nM). Twenty-five microliters of assay buffer (maximum NE uptake) or test compound were added directly to triplicate wells containing cells in 200 μl of assay buffer. […] To initiate the NE uptake, [^3H]NE diluted in assay buffer (120 nM final assay concentration) was delivered in 25 μl aliquots to each well and the plates were incubated for 5 minutes (37° C.).

[2] = molecular target: T1, human serotonin transporter (hSERT) (Homo sapiens, UniProt P31645); assay: Serotonin (5-HT) uptake assay in JAR cells (hSERT function uptake); type: cell-based; details: [3H]5-HT uptake
T1 construct: The methods for 5-HT functional reuptake using the JAR cell line were modified using a previous literature report; host or cells: JAR (human placental choriocarcinoma), staurosporine-stimulated
T1 sequence (P31645 whole entry): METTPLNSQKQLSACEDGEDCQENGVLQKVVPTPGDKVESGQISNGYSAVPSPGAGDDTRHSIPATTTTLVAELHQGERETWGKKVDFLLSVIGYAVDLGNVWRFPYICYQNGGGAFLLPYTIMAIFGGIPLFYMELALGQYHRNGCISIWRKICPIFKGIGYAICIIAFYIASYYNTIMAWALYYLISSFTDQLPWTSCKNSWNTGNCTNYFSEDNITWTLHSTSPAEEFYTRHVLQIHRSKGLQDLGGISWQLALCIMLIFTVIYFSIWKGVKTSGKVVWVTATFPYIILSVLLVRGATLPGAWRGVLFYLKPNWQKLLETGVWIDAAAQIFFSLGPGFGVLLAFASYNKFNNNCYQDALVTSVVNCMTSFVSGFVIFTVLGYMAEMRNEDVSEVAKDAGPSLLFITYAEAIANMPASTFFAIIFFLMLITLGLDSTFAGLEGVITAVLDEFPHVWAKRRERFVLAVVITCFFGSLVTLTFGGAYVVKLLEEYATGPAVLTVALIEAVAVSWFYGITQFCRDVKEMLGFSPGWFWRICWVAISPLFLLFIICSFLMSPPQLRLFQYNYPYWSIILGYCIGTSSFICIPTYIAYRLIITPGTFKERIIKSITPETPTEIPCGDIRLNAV
Protocol: The methods for 5-HT functional reuptake using the JAR cell line were modified using a previous literature report. […] On day 2, cells were stimulated with staurosporine (40 nM) to increase the expression of the 5-HT transporter. On day 3, cells were removed from the cell incubator two hours prior to assay and maintained at room temperature to equilibrate the growth medium to ambient oxygen concentration. […] Twenty-five microliters of assay buffer (maximum 5-HT uptake) or test compound were added directly to triplicate wells containing cells in 200 μl of assay buffer. The cells were incubated with the compound for 10 minutes (37° C.). […] The cells were incubated with the reaction mixture for 5 minutes at 37° C. The 5-HT uptake reaction was terminated by decanting the assay buffer.

[3] = molecular target: hNET (Homo sapiens, UniProt P23975); assay: hNET binding
Chain of hNET (P23975 whole entry): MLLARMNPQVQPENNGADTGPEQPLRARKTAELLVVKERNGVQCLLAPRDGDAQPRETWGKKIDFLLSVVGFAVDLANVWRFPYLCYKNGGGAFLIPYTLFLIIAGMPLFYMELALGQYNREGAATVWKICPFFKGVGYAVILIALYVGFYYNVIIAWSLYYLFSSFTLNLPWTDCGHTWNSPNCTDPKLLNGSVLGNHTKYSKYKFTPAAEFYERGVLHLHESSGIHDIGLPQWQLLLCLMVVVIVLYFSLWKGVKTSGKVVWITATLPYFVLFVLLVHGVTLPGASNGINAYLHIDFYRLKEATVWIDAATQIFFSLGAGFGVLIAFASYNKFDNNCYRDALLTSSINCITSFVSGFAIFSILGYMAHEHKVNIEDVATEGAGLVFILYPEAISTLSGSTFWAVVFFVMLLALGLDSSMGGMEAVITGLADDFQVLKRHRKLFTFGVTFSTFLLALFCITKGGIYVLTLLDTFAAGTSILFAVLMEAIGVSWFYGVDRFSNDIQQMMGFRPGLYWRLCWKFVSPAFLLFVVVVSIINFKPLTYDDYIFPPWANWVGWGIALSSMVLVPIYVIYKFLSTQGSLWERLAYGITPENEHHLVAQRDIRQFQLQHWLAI

[4] = molecular target: hSERT (Homo sapiens, UniProt P31645); assay: hSERT binding
Chain of hSERT (P31645 whole entry): as the sequence (P31645 whole entry) above

[5] = test system: OVX rats, tail skin temperature (TST); assay: Telemetry rat model of ovariectomy-induced thermoregulatory dysfunction (tail skin temperature); type: in vivo; details: 30 mg/kg sc; for Duration: duration of effect on TST; for Onset: onset of action on TST
Description: This model has been modified from a previously reported protocol describing estrogen regulation of diurnal tail skin temperature (TST) patterns (Berendsen, et al., European Journal of Pharmacology, 2001, 419(1): 47-54). […] A temperature and physical activity transmitter (PhysioTel TA10TA-F40, Data Sciences International) was implanted subcutaneously in the dorsal scapular region and the tip of the temperature probe was tunneled subcutaneously 2.5 cm beyond the base of the tail. After a 7-day recovery period, TST readings were continuously recorded for the remainder of the study. Tail skin temperature readings were collected from each animal every 5 minutes with values obtained over a 10 second sampling period. The day before test day, an average baseline TST value was calculated for each animal by averaging temperature readings recorded during the 12 hour active (dark) phase. In these studies, animals were dosed approximately 40 minutes prior to the onset of dark cycle.
Statistical analysis: Evaluation of a compound's ability to restore normal lowering of TST in the telemetry model was analyzed using hourly TST values calculated for each animal by averaging the 12 temperature readings obtained every 5 minutes over that recording time. To analyze ΔTST in the telemetry model, a two factors repeated measure ANOVA was performed. The model used for analysis was ΔTST=GRP (group)+HR (hours)+GRP*HR+BASELINE. Thus, the reported least squares means are the expected mean values as if both groups had the same baseline value. Post-hoc tests of hourly GRP*HR samples are t-tests of the difference between groups for each hour. To be conservative, a result was not considered significant unless the p-value was <0.025. All analyses were performed using SAS PROC MIXED (SAS, Carey, N.C.).
Rats were injected subcutaneously with vehicle (2%Tween/0.5% methylcellulose) or 30 mg/kg, sc test compound dissolved in 2%Tween/0.5% methylcellulose. The effect of test compound is measured by evaluating the following parameters in this model: onset of action, duration of effect on TST, maximal change in TST and mean change in TST over the duration of the compound effect.

[6] = test system: OVX rats, tail skin temperature (TST); assay: as above; type: in vivo; details: 30 mg/kg, sc; p<0.05 compared to vehicle control
[7] = test system: SNL rats, tactile allodynia; assay: Spinal nerve ligation (SNL) model of neuropathic pain, tactile hypersensitivity (von Frey); type: in vivo, rat; details: 30 mg/kg IP, 30-300 minutes after administration
Description: Subjects. Male Sprague-Dawley rats (Indianapolis, Ind.) weighing 150 to 200 g at time of arrival, were individually housed in wire cages in a climate-controlled room. A 12-hour light/dark cycle (lights on at 0630) was in effect, and food and water were available ad libitum.
Surgery—Spinal Nerve Ligation. Rats were anesthetized with 3.5% halothane in O2 at 1 L/min and maintained with 1.5% halothane in O2 during surgery. Ligation of the L5 and L6 nerves was produced by an incision through the left paraspinal muscles. The left L5 and L6 spinal nerves were isolated adjacent to the vertebral column and ligated tightly with 6-0 silk suture just distal to the dorsal root ganglion. The wound was closed in layers using 4-0 silk suture and wound clips. Testing began 7 days after surgery.
Assessment of tactile hypersensitivity. […] Baseline tactile sensitivity was assessed using a series of calibrated von Frey monofilaments (Stoelting; Wood Dale, Ill.) 0 to 3 days before surgery. […] The ability of a single dose of test compound to reverse established hypersensitivity was assessed using a time course procedure. […]
Results are presented as the 50% threshold values (50% threshold in g force) estimated by the Dixon non-parametric test. […] Significant main effects were analyzed further by subsequent least significant difference analysis. […]

Chain of human norepinephrine transporter (hNET) (P23975 whole entry): as the sequence (P23975 whole entry) above

EC50 [1] | EC50 [2] | hNET binding (% I @ 1 μM) [3] | hSERT binding (% I @ 1 μM) [4] | SMILES | Activity Index [5] | Duration [5] | Onset [5] | Restoration of normal TST in OVX-induced thermoregulatory dysfunction telemetry model [6] | Reversal of tactile allodynia in the SNL neuropathic pain model [7]
265 nM and 426 nM | 736 nM | 71.8 % I | 42.8 % I | Cc1ccc(C23CNCC2C3)cc1 (racemic) [Racemic 1-(4-methylphenyl)-3-azabicyclo[3.1.0]hexane, 1-(4-methylphenyl)-3-azabicyclo[3.1.0]hexane] | -10.6 h | 3.5 h | 0.5 h | restores normal TST | –
– | – | – | – | Cc1ccc(C23CNCC2C3)cc1 (single isomer, unassigned; (+)) [(+)-1-(4-methylphenyl)-3-azabicyclo[3.1.0]hexane] | -2.99 h | 3.5 h | 0.5 h | restores normal TST | –
– | – | – | – | Clc1ccc(C23CNCC2C3)cc1Cl (racemic) [Racemic 1-(3,4-dichlorophenyl)-3-azabicyclo[3.1.0]hexane, 1-(3,4-dichlorophenyl)-3-azabicyclo[3.1.0]hexane] | – | – | – | – | significantly reverses tactile allodynia
